Results from patent US9617256B2 (priority 2007, dated 2017).
Values after ≈ are worked out from the molar mass of the structure shown.

Tests used:
[1] = test system: AECO001 (ATCC25922); assay: MIC broth microdilution, AECO001; type: cell-based, E. coli; conditions: for MIC: Escherichia coli, ATCC25922, read-out: MIC AECO001; for MIC AECO001: AECO001 is ATCC25922
Outline: (§1)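 Strains were grown overnight at 35° C. on Mueller-Hinton agar, suspended to 0.5 McFarland and diluted to a final 3×10^5–7×10^5 CFU/mL. They were then exposed to 2-fold serial drug dilutions in cation-adjusted Mueller-Hinton broth and incubated 18-24 hours at 35° C.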

[2] = test system: AECO063 (ATCC25922 bearing an acrAB mutation); assay: microbe, parasite or virus in culture; type: cell-based, E. coli; conditions: for MIC: Escherichia coli, ATCC25922, read-out: MIC AECO063; for MIC AECO063: ATCC25922 bearing an acrAB mutation
Outline: as §1

[3] = test system: APAE001 (ATCC27853); assay: MIC broth microdilution, APAE001; type: cell-based, P. aeruginosa; conditions: for MIC: Pseudomonas aeruginosa, ATCC27853, read-out: MIC APAE001, APAE001 is ATCC27853; for MIC APAE001: APAE001 is ATCC27853
Outline: as §1

[4] = test system: APAE006 (strain of P. aeruginosa in which all efflux pumps are inactivated); assay: microbe, parasite or virus in culture; type: cell-based; conditions: for MIC: Pseudomonas aeruginosa, read-out: MIC APAE006, P. aeruginosa, all efflux pumps inactivated; for MIC APAE006: P. aeruginosa, all efflux pumps inactivated
Outline: (§2)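 For the efflux-deficient P. aeruginosa APAE006, one set of MICs includes polymyxin B nonapeptide at 8 micrograms per milliliter.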

[5] = test system: APAE006 in the presence of 8 micrograms per milliliter of polymyxin B nonapeptide; type: cell-based, P. aeruginosa; conditions: in the presence of 8 micrograms per milliliter of polymyxin B nonapeptide
Outline: as §2

[6] = test system: AABA1060 (clinical isolate of Acinetobacter baumannii); assay: MIC broth microdilution, AABA1060; type: cell-based; conditions: for MIC: Acinetobacter baumannii, read-out: MIC AABA1060; for MIC AABA1060: clinical isolate of Acinetobacter baumannii
Outline: as §1

[7] = test system: ASAU001 (laboratory strain of S. aureus, ATCC29213); assay: MIC broth microdilution, ASAU001; type: cell-based; conditions: for MIC: Staphylococcus aureus, ATCC29213, read-out: MIC ASAU001; for MIC ASAU001: S. aureus ATCC29213
Outline: as §1

[8] = test system: AECO001 HSA AGP; assay: MIC broth microdilution, AECO001 HSA AGP; type: cell-based, E. coli; conditions: for MIC: Escherichia coli
Outline: as §1

| Structure (SMILES) | MIC [1] [µg/mL] | MIC [2] [µg/mL] | MIC [3] [µg/mL] | MIC [4] [µg/mL] | MIC APAE006 + PMBN [5] | MIC [6] [µg/mL] | MIC [7] [µg/mL] | MIC [8] [µg/mL] | MIC AECO001 [1] | MIC AECO063 [2] | MIC APAE001 [3] | MIC APAE006 [4] | MIC AABA1060 [6] | MIC ASAU001 [7] | MIC AECO001 HSA AGP [8] |
| --- | --- | --- | --- | --- | --- | --- | --- | --- | --- | --- | --- | --- | --- | --- | --- |
| NCC(=O)NCc1ccc(C#Cc2ccc(C(=O)N[C@@H](CN)C(=O)NO)cc2)cc1 [Example 116-1, (S)—N-(3-amino-1-(hydroxyamino)-1-oxopropan-2-yl)-4-((4-((2-aminoacetamido)methyl)phenyl)ethynyl)benzamide] | 16 to 64 (≈ 39.1 to 156 µM) | 16 to 64 (≈ 39.1 to 156 µM) | 2 to 16 (≈ 4.88 to 39.1 µM) | < 2 | A (MIC's of 2.0 μg/mL or less = A) | 16 to 64 (≈ 39.1 to 156 µM) | 16 to 64 (≈ 39.1 to 156 µM) | 16 to 64 (≈ 39.1 to 156 µM) | – | – | – | – | – | – | – |
| O=C(N[C@H](C(=O)NO)C1CCOCC1)c1ccc(/C=C/C#Cc2ccc(CN3CCOCC3)cc2)cc1 [Example 110-4] | < 2 | < 2 | 2 to 16 (≈ 3.97 to 31.8 µM) | < 2 | A (MIC's of 2.0 μg/mL or less = A) | 16 to 64 (≈ 31.8 to 127 µM) | 16 to 64 (≈ 31.8 to 127 µM) | 2 to 16 (≈ 3.97 to 31.8 µM) | – | – | – | – | – | – | – |
| NC[C@H](NC(=O)c1ccc(/C=C/C#Cc2ccc(CNC3CC3)cc2)cc1)C(=O)NO [Example 113-1] | < 2 | < 2 | 2 to 16 (≈ 4.78 to 38.2 µM) | < 2 | A (MIC's of 2.0 μg/mL or less = A) | 16 to 64 (≈ 38.2 to 153 µM) | > 64 | 2 to 16 (≈ 4.78 to 38.2 µM) | – | – | – | – | – | – | – |
| C[C@@H](O)[C@H](NC(=O)c1ccc(/C=C\C#Cc2ccc(CN3CCOCC3)cc2)cc1)C(=O)NO [Example 30-12b] | 2 to 16 (≈ 4.31 to 34.5 µM) | < 2 | 2 to 16 (≈ 4.31 to 34.5 µM) | < 2 | A (MIC's of 2.0 μg/mL or less = A) | 16 to 64 (≈ 34.5 to 138 µM) | > 64 | 16 to 64 (≈ 34.5 to 138 µM) | – | – | – | – | – | – | – |
| C[C@@H](N)[C@H](NC(=O)c1ccc(/C=C/C#Cc2ccc(C(F)(F)F)cc2)cc1)C(=O)NO [Example 114-6] | < 2 | < 2 | 2 to 16 (≈ 4.64 to 37.1 µM) | 2 to 16 (≈ 4.64 to 37.1 µM) | A (MIC's of 2.0 μg/mL or less = A) | 2 to 16 (≈ 4.64 to 37.1 µM) | 2 to 16 (≈ 4.64 to 37.1 µM) | 2 to 16 (≈ 4.64 to 37.1 µM) | – | – | – | – | – | – | – |
| O=C(CNC1CC1)NC[C@H](NC(=O)c1ccc(C#C/C=C/c2ccc(CO)cc2)cc1)C(=O)NO [Example 103-1, N—[(S)-2-(2-cyclopropylamino-acetylamino)-1-hydroxycarbamoyl-ethyl]-4-[(E)-4-(4-hydroxymethyl-phenyl)-but-3-en-1-ynyl]-benzamide] | < 2 | < 2 | 2 to 16 (≈ 4.2 to 33.6 µM) | < 2 | A (MIC's of 2.0 μg/mL or less = A) | > 64 | > 64 | 2 to 16 (≈ 4.2 to 33.6 µM) | – | – | – | – | – | – | – |
| C[C@@H](NC(=O)CNC1CC1)[C@H](NC(=O)c1ccc(C#C/C=C/c2ccccc2)cc1)C(=O)NO [Example 105-3] | – | – | – | – | A (MIC's of 2.0 μg/mL or less = A) | – | – | – | C (MIC's of greater than 16.0 μg/mL to 64.0 μg/mL = C) | B (MIC's of greater than 2.0 μg/mL to 16.0 μg/mL = B) | C (MIC's of greater than 16.0 μg/mL to 64.0 μg/mL = C) | B (MIC's of greater than 2.0 μg/mL to 16.0 μg/mL = B) | C (MIC's of greater than 16.0 μg/mL to 64.0 μg/mL = C) | C (MIC's of greater than 16.0 μg/mL to 64.0 μg/mL = C) | C (MIC's of greater than 16.0 μg/mL to 64.0 μg/mL = C) |
| C[C@@H](O)[C@H](NC(=O)c1ccc(/C=C/C#Cc2ccc(CNC3CC3)cc2)cc1)C(=O)NO [Example 113-3] | < 2 | < 2 | 2 to 16 (≈ 4.61 to 36.9 µM) | < 2 | A (MIC's of 2.0 μg/mL or less = A) | 2 to 16 (≈ 4.61 to 36.9 µM) | > 64 | 2 to 16 (≈ 4.61 to 36.9 µM) | – | – | – | – | – | – | – |
| C[C@@H](N)[C@H](NC(=O)c1ccc(C#Cc2ccc(CN3CCC(F)(F)CC3)cc2)cc1)C(=O)NO [Example 115-3] | < 2 | < 2 | 2 to 16 (≈ 4.25 to 34 µM) | < 2 | A (MIC's of 2.0 μg/mL or less = A) | 2 to 16 (≈ 4.25 to 34 µM) | > 64 | < 2 | – | – | – | – | – | – | – |
| O=C(N[C@H](C(=O)NO)c1ccccc1)c1ccc(/C=C/C#Cc2ccc(CN3CCOCC3)cc2)cc1 [Example 110-11] | < 2 | < 2 | 16 to 64 (≈ 32.3 to 129 µM) | < 2 | A (MIC's of 2.0 μg/mL or less = A) | 16 to 64 (≈ 32.3 to 129 µM) | 16 to 64 (≈ 32.3 to 129 µM) | 2 to 16 (≈ 4.04 to 32.3 µM) | – | – | – | – | – | – | – |
| C[C@@H](N)[C@H](NC(=O)c1ccc(C#Cc2ccc(CN3CCC3)cc2)cc1)C(=O)NO [Example 118-1, N-((1S,2R)-2-Amino-1-hydroxycarbamoyl-propyl)-4-(4-azetidin-1-ylmethyl-phenylethynyl)-benzamide] | 16 to 64 (≈ 39.4 to 157 µM) | 2 to 16 (≈ 4.92 to 39.4 µM) | 2 to 16 (≈ 4.92 to 39.4 µM) | < 2 | A (MIC's of 2.0 μg/mL or less = A) | 16 to 64 (≈ 39.4 to 157 µM) | 16 to 64 (≈ 39.4 to 157 µM) | 16 to 64 (≈ 39.4 to 157 µM) | – | – | – | – | – | – | – |
| C[C@@H](N)[C@H](NC(=O)c1ccc(/C=C/C#Cc2ccc(CN3CCS(=O)(=O)CC3)cc2)cc1)C(=O)NO [Example 113-8] | – | – | – | – | A (MIC's of 2.0 μg/mL or less = A) | – | – | – | A (MIC's of 2.0 μg/mL or less = A) | A (MIC's of 2.0 μg/mL or less = A) | B (MIC's of greater than 2.0 μg/mL to 16.0 μg/mL = B) | A (MIC's of 2.0 μg/mL or less = A) | A (MIC's of 2.0 μg/mL or less = A) | C (MIC's of greater than 16.0 μg/mL to 64.0 μg/mL = C) | B (MIC's of greater than 2.0 μg/mL to 16.0 μg/mL = B) |
| O=C(CNC1CC1)NC[C@H](NC(=O)c1ccc(C#C/C=C/c2ccccc2)cc1)C(=O)NO [Example 105-1, N—[(S)-2-(2-Cyclopropylamino-acetylamino)-1-hydroxycarbamoyl-ethyl]-4-((E)-4-phenyl-but-3-en-1-ynyl)-benzamide] | < 2 | < 2 | 2 to 16 (≈ 4.48 to 35.8 µM) | < 2 | A (MIC's of 2.0 μg/mL or less = A) | 16 to 64 (≈ 35.8 to 143 µM) | 16 to 64 (≈ 35.8 to 143 µM) | 2 to 16 (≈ 4.48 to 35.8 µM) | – | – | – | – | – | – | – |
